These results are taken from paper PMC10303271, “Synthesis and Receptor Binding Studies of α5 GABAAR Selective Novel Imidazodiazepines Targeted for Psychiatric and Cognitive Disorders” (Molecules, 2023).

Structures are written as SMILES.

One assay deals with T1, 5-HT5A (Homo sapiens, UniProt P47898).
T1 construct: purchased NIMH Psychoactive Drug Screening Program (PDSP)
Kind of assay: PDSP primary binding 5-HT5A. As to conditions: 1.5 h; primary binding, 10,000 nM; last figure of the line = mean of the 4 before it; read-out: 5-HT5A, PDSP raw data, mean. The procedure:
(§1) To determine if any off-target receptor-binding effects are present, all the novel ligands were sent to the National Institute of Mental Health (NIMH), Psychoactive Drug Screening Program (PDSP). The ligands were screened over a panel of 47 receptors, ion channels, and transporters to determine any other possible interactions with […]. The hERG-binding was also determined. […] No binding of the test compounds to calcium channels was observed. […] It is necessary to screen the compounds for hERG-binding during the early process of drug discovery. The unintentional binding of many drugs to hERG can cause blockade of hERG K+ channels in the heart, which can cause many side effects including cardiac arrhythmias and sudden death. […] All of the α5 imidazodiazepines were tested for hERG-binding.
(§2) The NIMH PDSP assay protocol book [https://kidbdev.med.unc.edu/databases/PDSP%20Protocols%20II%202013-03-28.pdf accessed on 23 April 2023]. describes the protocols for primary and secondary radio-ligand binding assays. These assays were carried out in a final volume of 125 µL per well in the appropriate binding buffer.
(§3) The binding of a ligand to a receptor, ion channel, or transporter was determined in the […] of 10 µM of the appropriate reference compound. […] Plates were incubated in the dark for 90 min at rt, and the reactions were stopped by vacuum filtration onto 0.3% polyethyleneimine (PEI) soaked 96-well filter mats using a 96-well Filtermateharvester. This was followed by three washes with cold PBS buffer. Radioactivity was then counted on a Microbeta counter. Nonlinear regression was used to analyze the data with N = 6 replicates.

The next assay concerns the target T2, 5-HT7A (Homo sapiens, UniProt P34969).
T2 construct: purchased NIMH Psychoactive Drug Screening Program (PDSP)
Kind of assay: PDSP primary binding 5-HT7A. The settings on record: 1.5 h; primary binding, 10,000 nM; last figure of the line = mean of the 4 before it; read-out: 5-HT7A, PDSP raw data, mean. The procedure:
as §1, §2, §3

The next assay addresses T3, A1 (Homo sapiens, UniProt P30542).
T3 construct: purchased NIMH Psychoactive Drug Screening Program (PDSP)
T3 sequence (P30542 1-326): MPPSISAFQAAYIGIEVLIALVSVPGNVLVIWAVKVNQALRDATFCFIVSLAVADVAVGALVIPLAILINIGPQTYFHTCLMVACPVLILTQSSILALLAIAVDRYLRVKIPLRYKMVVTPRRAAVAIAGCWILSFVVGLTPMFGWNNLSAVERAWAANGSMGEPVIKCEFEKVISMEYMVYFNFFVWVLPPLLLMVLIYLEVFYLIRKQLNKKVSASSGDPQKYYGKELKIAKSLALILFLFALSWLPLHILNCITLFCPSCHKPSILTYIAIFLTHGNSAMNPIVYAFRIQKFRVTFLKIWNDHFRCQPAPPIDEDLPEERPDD
Kind of assay: PDSP primary binding A1. As to conditions: 1.5 h; primary binding, 10,000 nM; last figure of the line = mean of the 4 before it; read-out: A1, PDSP raw data, mean. As to the method: as §1, §2, §3

The target of a further assay is T4, A2A (Homo sapiens, UniProt P29274).
T4 construct: purchased NIMH Psychoactive Drug Screening Program (PDSP)
T4 sequence (P29274 whole entry): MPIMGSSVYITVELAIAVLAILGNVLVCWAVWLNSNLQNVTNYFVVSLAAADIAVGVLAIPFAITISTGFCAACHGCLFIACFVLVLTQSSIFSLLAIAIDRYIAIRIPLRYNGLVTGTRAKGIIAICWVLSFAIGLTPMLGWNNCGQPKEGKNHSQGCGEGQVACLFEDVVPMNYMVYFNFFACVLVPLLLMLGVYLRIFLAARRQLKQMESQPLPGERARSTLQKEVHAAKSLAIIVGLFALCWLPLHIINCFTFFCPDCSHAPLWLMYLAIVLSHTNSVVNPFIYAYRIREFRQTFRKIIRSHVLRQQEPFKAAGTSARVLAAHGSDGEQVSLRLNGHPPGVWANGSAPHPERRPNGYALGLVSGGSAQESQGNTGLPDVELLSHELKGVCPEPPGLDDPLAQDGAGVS
Kind of assay: PDSP primary binding A2A. The settings on record: primary binding, 10,000 nM; last figure of the line = mean of the 4 before it. The procedure:
as §1, §2, §3

The target of a further assay is T5, Alpha1A (Homo sapiens, UniProt P35348).
T5 construct: purchased NIMH Psychoactive Drug Screening Program (PDSP)
T5 sequence (P35348 1-466): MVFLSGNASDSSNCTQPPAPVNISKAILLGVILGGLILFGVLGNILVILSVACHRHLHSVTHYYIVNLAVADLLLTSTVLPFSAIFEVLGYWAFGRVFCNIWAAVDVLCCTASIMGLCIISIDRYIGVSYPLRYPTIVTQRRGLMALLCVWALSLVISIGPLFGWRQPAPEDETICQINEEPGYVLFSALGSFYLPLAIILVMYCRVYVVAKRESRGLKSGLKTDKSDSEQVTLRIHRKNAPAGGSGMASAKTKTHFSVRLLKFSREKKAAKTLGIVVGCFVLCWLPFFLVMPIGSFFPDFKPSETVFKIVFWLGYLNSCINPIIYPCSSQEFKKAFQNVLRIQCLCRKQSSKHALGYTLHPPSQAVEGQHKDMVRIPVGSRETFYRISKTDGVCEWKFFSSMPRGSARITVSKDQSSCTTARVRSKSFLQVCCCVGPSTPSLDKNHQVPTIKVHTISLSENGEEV
Kind of assay: PDSP primary binding Alpha1A. The settings on record: 1.5 h; primary binding, 10,000 nM; last figure of the line = mean of the 4 before it; read-out: Alpha1A, PDSP raw data, mean. The procedure:
as §1, §2, §3

The target of a further assay is T6, Alpha1B (Homo sapiens, UniProt P35368).
T6 construct: purchased NIMH Psychoactive Drug Screening Program (PDSP)
T6 sequence (P35368 1-520): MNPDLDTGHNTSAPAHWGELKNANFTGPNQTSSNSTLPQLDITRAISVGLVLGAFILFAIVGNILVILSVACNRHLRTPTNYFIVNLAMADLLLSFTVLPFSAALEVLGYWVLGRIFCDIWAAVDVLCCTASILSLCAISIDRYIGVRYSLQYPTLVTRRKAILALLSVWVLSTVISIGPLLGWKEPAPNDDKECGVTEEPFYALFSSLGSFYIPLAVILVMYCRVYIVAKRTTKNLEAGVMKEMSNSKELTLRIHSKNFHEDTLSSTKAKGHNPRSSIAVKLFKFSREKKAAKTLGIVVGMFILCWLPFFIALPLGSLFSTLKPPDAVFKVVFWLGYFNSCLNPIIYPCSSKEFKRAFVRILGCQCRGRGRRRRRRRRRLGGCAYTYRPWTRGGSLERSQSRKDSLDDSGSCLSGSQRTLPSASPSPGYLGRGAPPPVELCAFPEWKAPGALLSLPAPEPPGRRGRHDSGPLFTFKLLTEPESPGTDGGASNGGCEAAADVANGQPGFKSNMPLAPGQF
Kind of assay: PDSP primary binding Alpha1B. As to conditions: 1.5 h; primary binding, 10,000 nM; last figure of the line = mean of the 4 before it; read-out: Alpha1B, PDSP raw data, mean. The procedure: as §1, §2, §3

Another assay concerns the target T7, M3 (Homo sapiens, UniProt P20309).
T7 construct: purchased NIMH Psychoactive Drug Screening Program (PDSP)
Kind of assay: PDSP primary binding M3. As to conditions: primary binding, 10,000 nM; last figure of the line = mean of the 4 before it; read-out: M3, PDSP raw data, mean. As to the method:
as §1, §2, §3

For the next assay, the system named is Kainate (Rat Brain). Kind of assay: PDSP primary binding Kainate (Rat Brain). The settings on record: primary binding, 10,000 nM; last figure of the line = mean of the 4 before it. As to the method:
as §1, §2, §3

In a further assay the target is T8, NTS1 (Homo sapiens, UniProt P30989).
T8 construct: purchased NIMH Psychoactive Drug Screening Program (PDSP)
T8 sequence (P30989 whole entry): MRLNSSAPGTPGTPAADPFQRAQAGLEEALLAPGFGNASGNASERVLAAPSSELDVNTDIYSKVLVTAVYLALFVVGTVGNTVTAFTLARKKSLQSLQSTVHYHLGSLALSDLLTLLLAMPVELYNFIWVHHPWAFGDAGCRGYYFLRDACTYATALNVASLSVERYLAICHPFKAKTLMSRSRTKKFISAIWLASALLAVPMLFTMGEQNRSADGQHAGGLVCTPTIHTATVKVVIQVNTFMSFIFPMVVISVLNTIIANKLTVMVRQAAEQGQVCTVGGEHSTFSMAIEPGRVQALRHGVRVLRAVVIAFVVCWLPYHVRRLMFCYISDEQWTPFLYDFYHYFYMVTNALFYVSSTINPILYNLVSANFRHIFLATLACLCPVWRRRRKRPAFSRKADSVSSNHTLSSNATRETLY
Kind of assay: PDSP primary binding NTS1. The settings on record: primary binding, 10,000 nM; last figure of the line = mean of the 4 before it; read-out: NTS1, PDSP raw data, mean. The procedure: as §1, §2, §3

In the next assay the target is T9, Alpha4Beta2 (Rat Brain) (Rattus norvegicus, UniProt P09483+P12390).
T9 construct: purchased NIMH Psychoactive Drug Screening Program (PDSP)
T9 sequence (P09483 31-630): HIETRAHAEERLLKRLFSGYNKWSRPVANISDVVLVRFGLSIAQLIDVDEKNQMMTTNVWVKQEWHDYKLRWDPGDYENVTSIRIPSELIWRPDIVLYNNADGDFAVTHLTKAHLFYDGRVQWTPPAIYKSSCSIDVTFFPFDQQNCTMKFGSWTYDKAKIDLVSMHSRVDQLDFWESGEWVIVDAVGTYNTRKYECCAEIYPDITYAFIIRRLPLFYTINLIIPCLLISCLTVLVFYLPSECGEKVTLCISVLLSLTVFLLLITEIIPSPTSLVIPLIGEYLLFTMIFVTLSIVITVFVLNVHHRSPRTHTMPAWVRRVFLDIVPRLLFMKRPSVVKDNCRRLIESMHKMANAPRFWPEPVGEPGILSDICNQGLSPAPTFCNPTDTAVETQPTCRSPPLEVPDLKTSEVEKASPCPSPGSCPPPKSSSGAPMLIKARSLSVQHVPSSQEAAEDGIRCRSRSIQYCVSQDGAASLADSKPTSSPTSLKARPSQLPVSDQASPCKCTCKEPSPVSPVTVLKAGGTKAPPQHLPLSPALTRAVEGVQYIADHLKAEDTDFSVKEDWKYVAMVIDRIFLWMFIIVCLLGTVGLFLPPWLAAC
T9 sequence (P12390 25-500): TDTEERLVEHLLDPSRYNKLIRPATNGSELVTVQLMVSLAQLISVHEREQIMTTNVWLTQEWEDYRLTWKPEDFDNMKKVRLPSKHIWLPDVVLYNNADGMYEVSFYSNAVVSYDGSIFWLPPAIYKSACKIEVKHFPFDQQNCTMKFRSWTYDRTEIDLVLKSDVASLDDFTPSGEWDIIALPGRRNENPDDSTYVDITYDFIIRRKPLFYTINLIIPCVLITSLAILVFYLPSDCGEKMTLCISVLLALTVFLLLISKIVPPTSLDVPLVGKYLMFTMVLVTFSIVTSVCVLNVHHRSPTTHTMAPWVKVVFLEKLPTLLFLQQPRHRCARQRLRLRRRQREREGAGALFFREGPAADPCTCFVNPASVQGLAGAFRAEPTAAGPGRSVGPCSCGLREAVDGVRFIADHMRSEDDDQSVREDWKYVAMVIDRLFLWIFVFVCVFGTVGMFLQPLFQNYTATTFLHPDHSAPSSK
Kind of assay: PDSP primary binding Alpha4Beta2 (Rat Brain). As to conditions: primary binding, 10,000 nM; last figure of the line = mean of the 4 before it; read-out: Alpha4Beta2 (Rat Brain), PDSP raw data, mean. The procedure:
as §1, §2, §3

T7 sequence (P20309 whole entry): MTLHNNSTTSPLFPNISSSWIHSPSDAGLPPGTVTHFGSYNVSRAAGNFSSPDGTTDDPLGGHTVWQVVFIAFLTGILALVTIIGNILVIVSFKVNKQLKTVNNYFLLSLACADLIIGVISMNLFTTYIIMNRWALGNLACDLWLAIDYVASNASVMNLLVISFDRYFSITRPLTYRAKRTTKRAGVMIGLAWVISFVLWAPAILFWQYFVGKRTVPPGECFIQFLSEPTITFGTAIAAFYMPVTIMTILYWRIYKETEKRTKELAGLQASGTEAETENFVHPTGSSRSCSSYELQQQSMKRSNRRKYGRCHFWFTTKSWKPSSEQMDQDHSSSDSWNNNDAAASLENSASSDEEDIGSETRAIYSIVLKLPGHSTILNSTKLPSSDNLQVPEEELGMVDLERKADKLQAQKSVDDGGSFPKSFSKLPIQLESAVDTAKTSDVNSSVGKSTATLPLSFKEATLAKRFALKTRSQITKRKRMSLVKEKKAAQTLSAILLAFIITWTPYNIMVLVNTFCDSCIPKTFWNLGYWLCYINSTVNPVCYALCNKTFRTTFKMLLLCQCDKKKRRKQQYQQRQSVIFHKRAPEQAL
T1 sequence (P47898 whole entry): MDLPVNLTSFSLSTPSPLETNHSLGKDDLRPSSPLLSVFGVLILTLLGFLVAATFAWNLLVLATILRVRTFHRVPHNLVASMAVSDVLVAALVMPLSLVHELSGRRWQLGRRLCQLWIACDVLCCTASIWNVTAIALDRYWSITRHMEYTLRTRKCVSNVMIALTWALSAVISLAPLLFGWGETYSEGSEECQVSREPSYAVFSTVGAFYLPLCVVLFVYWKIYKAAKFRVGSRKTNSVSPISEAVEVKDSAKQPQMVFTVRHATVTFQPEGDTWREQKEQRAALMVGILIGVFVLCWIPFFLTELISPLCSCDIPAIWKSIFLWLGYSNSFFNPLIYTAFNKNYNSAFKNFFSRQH
T2 sequence (P34969 1-445 isoform P34969-2): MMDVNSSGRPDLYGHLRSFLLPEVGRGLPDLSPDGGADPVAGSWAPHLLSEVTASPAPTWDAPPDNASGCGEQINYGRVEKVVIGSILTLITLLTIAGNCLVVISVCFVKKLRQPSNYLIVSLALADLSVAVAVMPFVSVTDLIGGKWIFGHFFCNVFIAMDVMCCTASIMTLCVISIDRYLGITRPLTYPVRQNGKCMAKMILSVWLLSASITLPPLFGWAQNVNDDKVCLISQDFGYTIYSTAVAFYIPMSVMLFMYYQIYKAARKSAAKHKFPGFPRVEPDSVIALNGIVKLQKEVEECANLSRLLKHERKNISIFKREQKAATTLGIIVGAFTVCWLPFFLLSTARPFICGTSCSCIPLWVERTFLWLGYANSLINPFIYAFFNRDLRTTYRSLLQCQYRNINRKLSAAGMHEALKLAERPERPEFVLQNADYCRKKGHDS

As for `C[C@H]1N=C(c2ccccc2F)c2cc(Cl)ccc2-n2cnc(-c3nc(C4CC4)no3)c21` [Compound 38, (R)-5-(8-Chloro-6-(2′-fluorophenyl)-4-methyl-4H-benzo[f]imidazo[1,5-a][1,4]diazepin-3-yl)-3-cyclopropyl-1,2,4-oxadiazole], the inhibition at 10 µM at 5-HT5A is -2.84%; at 5-HT7A, 11.9%; at A1, 55.5%; on Alpha1A, 1.65%; at Alpha1B it was 10.8%; on M3 it was 19.3%. Further, the results for the inhibition at 10 µM on NTS1 and at Alpha4Beta2 (Rat Brain) were -13.2% and 0.48%, respectively. Moreover, on A2A, the “A2A, PDSP raw data, mean” value stood at 19.95%. Further, the “Kainate (Rat Brain), PDSP raw data, mean” value with Kainate (Rat Brain) is 36.46%.
With `C[C@H]1N=C(c2ccccc2F)c2cc(-c3ccccc3)ccc2-n2cnc(C(=O)N(C)C)c21` [Compound 5, (R)-6-(2′-Fluorophenyl)-N,N,4-trimethyl-8-phenyl-4H-benzo[f]imidazo[1,5-a][1,4]diazepine-3-carboxamide], the inhibition at 10 µM at 5-HT5A is 53.6%; on 5-HT7A, 4.31%; on A1, 25.9%; on Alpha1A it was -4.47%; at Alpha1B, -15.3%; on M3 it was 3.03%. The inhibition at 10 µM on NTS1 was -16.7%; at Alpha4Beta2 (Rat Brain), -5.7%. At A2A, the “A2A, PDSP raw data, mean” value turned out to be 11.57%. For the same compound, the “Kainate (Rat Brain), PDSP raw data, mean” value in the assay with Kainate (Rat Brain) is listed as 3.43%.
For the compound `CC(C)c1noc(-c2ncn3c2[C@@H](C)N=C(c2ccccc2F)c2cc(Cl)ccc2-3)n1` [Compound 37, (R)-5-(8-Chloro-6-(2′-fluorophenyl)-4-methyl-4H-benzo[f]imidazo[1,5-a][1,4]diazepin-3-yl)-3-isopropyl-1,2,4-oxadiazole], the inhibition at 10 µM is -2.71% at 5-HT5A; 12.1% on 5-HT7A; 52.2% at A1; -8.38% at Alpha1A; 4.27% on Alpha1B; 15.6% at M3. Further, the values for the inhibition at 10 µM on NTS1 and at Alpha4Beta2 (Rat Brain) were -16.3% and -0.61%, respectively. Further, the “A2A, PDSP raw data, mean” value on A2A was -1.87%. The “Kainate (Rat Brain), PDSP raw data, mean” value in the assay on Kainate (Rat Brain) worked out at 35.39%.
Take `CCc1noc(-c2ncn3c2[C@@H](C)N=C(c2ccccc2F)c2cc(Cl)ccc2-3)n1` [Compound 36, (R)-5-(8-Chloro-6-(2′-fluorophenyl)-4-methyl-4H-benzo[f]imidazo[1,5-a][1,4]diazepin-3-yl)-3-ethyl-1,2,4-oxadiazole]: the inhibition at 10 µM at 5-HT5A is -1.84%; at 5-HT7A, 1.53%; at A1, 67.9%; on Alpha1A it was -0.34%; on Alpha1B it was -0.79%; on M3, -3.98%. For the same compound, the inhibition at 10 µM on NTS1 was -16.9%; on Alpha4Beta2 (Rat Brain), 3.25%. Besides, at A2A, the “A2A, PDSP raw data, mean” value amounted to 1.43%. The “Kainate (Rat Brain), PDSP raw data, mean” value in the assay with Kainate (Rat Brain) turned out to be 42.86%.
As for `CCc1noc(-c2ncn3c2CN=C(c2ccccc2F)c2cc(C4CC4)ccc2-3)n1` [Compound 44, 5-(8-Cyclopropyl-6-(2′-fluorophenyl)-4H-benzo[f]imidazo[1,5-a][1,4]diazepin-3-yl)-3-ethyl-1,2,4-oxadiazole], the inhibition at 10 µM at 5-HT5A was 5.08%; on 5-HT7A, 9.22%; at A1, 48.2%; on Alpha1A, 21.4%; at Alpha1B, 6.87%; on M3 it was -0.6%. In addition, the figures for the inhibition at 10 µM on NTS1 and at Alpha4Beta2 (Rat Brain) were -62.2% and -0.99%, respectively. In addition, the “A2A, PDSP raw data, mean” value at A2A is listed as 21.36%. The “Kainate (Rat Brain), PDSP raw data, mean” value in the assay on Kainate (Rat Brain) was 42.42%.
